Data from patent publication US20130150376A1, “Novel Sultam Compounds” (PFIZER INC., priority 2010, published 2013).
Like-named read-outs stand apart in the source and are kept apart here.

Target: T1, BACE1 enzyme (soluble, truncated BACE enzyme, BACE1deltaTM96His) (Homo sapiens, UniProt P56817)
T1 construct: soluble, truncated BACE enzyme (BACE1deltaTM96His); His; made in house
Test: BACE1 Fluorescent Polarization (FP) Assay
Assay type: biochemical
Conditions: geometric mean of 2-4 IC50 determinations unless footnoted (^2: 5-6 determinations; ^4: single determination)
Outline: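 Soluble truncated His-tagged BACE1 (BACE1deltaTM96His, from CHO-K1 conditioned media; 0.1 nM final) with biotinylated Oregon green peptide substrate (150 nM final), in 100 mM sodium acetate pH 4.5, 0.001% Tween-20. Compounds in ½ log series from 100 μM top; 3 h at 37° C. Stopped with streptavidin; cleavage read as Δ mP fluorescence polarization (Ex485/Em530).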

[1] = 11-point curve, read-out: BACE activity, 11-point curve, IC50

T1 sequence (P56817 46-457): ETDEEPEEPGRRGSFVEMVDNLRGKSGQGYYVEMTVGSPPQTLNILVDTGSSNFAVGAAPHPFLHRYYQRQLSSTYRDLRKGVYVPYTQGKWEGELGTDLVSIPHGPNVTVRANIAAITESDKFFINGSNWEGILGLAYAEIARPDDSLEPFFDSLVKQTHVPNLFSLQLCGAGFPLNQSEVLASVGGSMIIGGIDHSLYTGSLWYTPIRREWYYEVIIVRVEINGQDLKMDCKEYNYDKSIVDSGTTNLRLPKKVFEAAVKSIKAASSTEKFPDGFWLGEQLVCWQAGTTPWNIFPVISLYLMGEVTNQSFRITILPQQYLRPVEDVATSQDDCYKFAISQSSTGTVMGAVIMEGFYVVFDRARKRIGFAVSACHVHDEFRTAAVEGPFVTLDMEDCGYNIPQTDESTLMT

IC50 (8-point curve, read-out: BACE activity, 8-point curve, IC50) [µM] | IC50 [1] [µM] | Structure (SMILES)
0.0649 | 1.23 | Cc1scnc1-c1cc(CN2CC[C@]3(CCS(=O)(=O)N3c3cnccn3)C[C@@H]2C)ccc1O [Example 89, 4-{[(5R,7S)-7-methyl-2,2-dioxido-1-(pyrazin-2-yl)-2-thia-1,8-diazaspiro[4.5]dec-8-yl]methyl}-2-(5-methyl-1,3-thiazol-4-yl)phenol]
– | 3.28 | Cc1scnc1-c1cc(CN2CC[C@]3(CCS(=O)(=O)N3c3ccccn3)C[C@@H]2C)ccc1O [Example 90, 4-{[(5R,7S)-7-methyl-2,2-dioxido-1-(pyridin-2-yl)-2-thia-1,8-diazaspiro[4.5]dec-8-yl]methyl}-2-(5-methyl-1,3-thiazol-4-yl)phenol]
– | 0.763 | Cc1csnc1-c1cc(CN2CC[C@]3(CCS(=O)(=O)N3c3ccccn3)C[C@@H]2C)ccc1O [Example 91, 4-{[(5R,7S)-7-methyl-2,2-dioxido-1-(pyridin-2-yl)-2-thia-1,8-diazaspiro[4.5]dec-8-yl]methyl}-2-(4-methylisothiazol-3-yl)phenol]
– | 4.19 | C[C@H]1C[C@]2(CCN1Cc1ccc(O)c(C3CCC3)c1)CCS(=O)(=O)N2c1ccccn1 [Example 92, 2-cyclobutyl-4-{[(5R,7S)-7-methyl-2,2-dioxido-1-(pyridin-2-yl)-2-thia-1,8-diazaspiro[4.5]dec-8-yl]methyl}phenol]
